Molecules are shown by their SMILES.

T1 sequence (Q99705 whole entry): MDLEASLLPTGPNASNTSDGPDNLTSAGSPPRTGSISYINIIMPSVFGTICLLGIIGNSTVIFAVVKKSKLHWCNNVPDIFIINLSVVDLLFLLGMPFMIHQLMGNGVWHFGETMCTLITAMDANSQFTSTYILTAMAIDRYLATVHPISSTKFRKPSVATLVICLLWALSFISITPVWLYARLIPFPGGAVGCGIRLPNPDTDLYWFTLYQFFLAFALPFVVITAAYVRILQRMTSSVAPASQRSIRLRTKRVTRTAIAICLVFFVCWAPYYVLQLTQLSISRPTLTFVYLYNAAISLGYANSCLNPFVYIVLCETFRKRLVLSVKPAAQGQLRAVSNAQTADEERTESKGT

Tested on in the first series: not given
Test: not given
Settings: not given
On to `Oc1ccc(-c2ccc(CCCNc3ccc(CN4CCC(O)(C(F)(F)F)CC4)cc3)nn2)cc1` [Example 21.1], for which the melting point was in the range of 200 to 204 °C. Consider `COc1ccc(-c2ccc(CCCNc3ccc4c(c3)CN(C)CC4)nn2)cc1` [Example 19.1, {3-[6-(4-Methoxy-phenyl)-pyridazin-3-yl]-propyl}-(2-methyl-1,2,3,4-tetrahydro-isoquinolin-7-yl)-amine], for which the melting point is 130 to 133 °C. Compound `CC1CCN(Cc2ccc(NCCCc3ccc(-c4ccc(Cl)cc4)cc3)cc2)CC1` [Example 1.1, [3-(4′-Chloro-biphenyl-4-yl)-propyl]-[4-(4-methyl-piperidin-1-ylmethyl)-phenyl]-amine] registered a melting point of 69 to 71 °C.

Compound `CN(C)Cc1ccc(NCCCc2ccc(-c3ccc(Cl)cc3)cc2)cc1` [Example 4.1, [3-(4′-Chloro-biphenyl-4-yl)-propyl]-(4-dimethylaminomethyl-phenyl)-amine] returned a melting point of 85 to 90 °C. `OC1(C(F)(F)F)CCN(Cc2ccc(NCCCc3ccc(-c4ccc(Cl)cc4)cc3)nc2)CC1` [Example 5.1] showed a melting point of 170 to 172 °C.

Another series concerns the target T1, hMCH-1R (Homo sapiens, UniProt Q99705).
T1 construct: expressed in transfected cells
Put plainly: MCH-1 receptor binding test (125I-MCH binding to membranes of hMCH-1R transfected CHO/Galpha16 cells). The conditions noted are these: displacement of 125I-MCH, hMCH-1R CHO/Galpha16 membranes. The procedure: MCH-1 Receptor Binding Test
Method: MCH binding to hMCH-1R transfected cells
Test cell: hMCH-1R stably transfected into CHO/Galphal 6 cells
Membranes from CHO/Galphal6 cells stably transfected with human hMCH-1R are resuspended using a syringe (needle 0.6×25 mm) and diluted in test buffer (50 mM HEPES, 10 mM MgCl2, 2 mM EGTA, pH 7.00; 0.1% bovine serum albumin (protease-free), 0.021% bacitracin, 1 μg/ml aprotinin, 1 μg/ml leupeptin and 1 μM phosphoramidone) to a concentration of 5 to 15 μg/ml.
After the incubation the reaction is filtered using a cell harvester through 0.5% PEI treated fibreglass filters (GF/B, Unifilter Packard). The membrane-bound radioactivity retained on the filter is then determined after the addition of scintillator substance (Packard Microscint 20) in a measuring device (TopCount of Packard).
The non-specific binding is defined as bound radioactivity in the presence of 1 micromolar MCH during the incubation period.
The analysis of the concentration binding curve is carried out on the assumption of one receptor binding site.
(In general: In a radioligand displacement assay an active substance lowers the binding of a labelled ligand.)
The compound `CCN(CC)CCOc1ccc(OCCOc2ccc(I)cc2Cl)cc1Cl` [Example 12.1, (2-{2-Chloro-4-[2-(2-chloro-4-iodo-phenoxy)-ethoxy]-phenoxy}-ethyl)-diethyl-amine] showed a half-maximal inhibitory concentration (IC50) of 172 nM. `COc1ccc(-c2ccc(CCCNc3ccc(CN4CCC(NC(C)=O)C4)cc3)nn2)cc1` (centres unmarked) [Example 3.30, N-[1-(4-{3-[6-(4-Methoxy-phenyl)-pyridazin-3-yl]-propylamino}-benzyl)-pyrrolidin-3-yl]-acetamide]: the IC50 was found to be 79 nM.

In turn, `COc1ccc(-c2ccc(NCCCc3ccc(CN4CCC(O)CC4)cc3)nn2)cc1` [Example 9.1, 1-(4-{3-[6-(4-Methoxy-phenyl)-pyridazin-3-ylamino]-propyl}-benzyl)-piperidin-4-ol] showed a 50% inhibitory concentration (IC50) of 174 nM.

As usually defined, the melting point is the temperature of the solid-liquid transition. A word on the IC50: it is the concentration needed to halve the response being measured. High values mean weaker potency in that assay, low ones greater potency in that assay.
